Results as given in EPA's ToxValDB 9.5.

Experiments:
Rattus norvegicus [1] = settings: oral
Rattus norvegicus [2] = settings: oral; for LD50: acute
[3] = subchronic, gavage, M, Sprague-Dawley, Body Weight Changes: Body weight gain decrease + Food Consumption: Food consumption decrease + Blood Chemistry: ALP decrease, TG decrease, …
[4] = reproduction developmental, duration: 10 days, gavage, F, Sprague-Dawley
[5] = subchronic, duration: 13 weeks, diet
[6] = reproduction developmental, duration: 41 days, gavage, F, Crj:CD
[7] = reproduction developmental, duration: 41 days, gavage, M, Crj:CD
[8] = subchronic, gavage, M, Sprague-Dawley, Clinical Observation: Soiled perigenital region + Body Weight Changes: Weight gain decrease + Food Consumption: decrease(week 1) + Blood …
[9] = short-term, duration: 28 days, gavage, F, Sprague-Dawley, Urinalysis: Volume increasep H decrease + Hematology: APTT increase, PT increase + Blood Chemistry: TP increase, Glu decrease, Cho increase…
[10] = short-term, duration: 28 days, gavage, M, Sprague-Dawley, Urinalysis: Volume increasep H decrease + Hematology: APTT increase, PT increase + Blood Chemistry: TP increase, Glu decrease, Cho increase…

**Q.** [In] [Indium] was tested. Which NOEL (Rattus norvegicus [1]; short-term, duration: 28 days, gavage, Crj:CD) did it give?
**A.** 1000 mg/kg-day

**Q.** Which NOEL (Rattus norvegicus [1]; short-term, duration: 28 days, gavage, M/F, Urinalysis: pH decrease + Blood Chemistry: GOT increase) does the source give for Nc1ccc2cc(S(=O)(=O)O)ccc2c1 [6-Aminonaphthalene-2-sulfonic acid] here?
**A.** 300 mg/kg-day

**Q.** Which NOAEL (Rattus norvegicus [1]; short-term, duration: 28 days, diet, M, Fischer 344, Hematology: WBC decrease Lymph decrease + Blood Chemistry: AST increase) does the source give for CCCCC(CC)COC(=O)CS (stereo unspecified) [2-Ethylhexyl thioglycolate] here?
**A.** 0.2%

**Q.** O=S(=O)([O-])c1cccc2c(S(=O)(=O)[O-])cccc12.[Na+].[Na+] [1,5-Naphthalenedisulfonic acid, disodium salt] was tested. Which NOEL (Rattus norvegicus [1]; subchronic, gavage, M, Sprague-Dawley, Clinical Observation: Soft stool Diarrhea + Necropsy: Stomach/Forestomach-Elevation of limiting ridge Cecum-Enlargement + Histopathology: …) did it give?
**A.** 40 mg/kg-day

**Q.** With COC(N)=O [Methyl carbamate] as the molecule, how does the NOEL (Rattus norvegicus [1]; subchronic, duration: 13 weeks, gavage, M/F, Fischer 344, Deaths + Body Weight Changes: decrease + Absolute Organ Weight: Liver decrease + Relative Organ Weight: Liver decrease + Histopathology: …) read?
**A.** 50 mg/kg-day

**Q.** CC(C)CCCCCCOC(=O)c1ccc(C(=O)OCCCCCCC(C)C)c(C(=O)OCCCCCCC(C)C)c1 [Triisononyl trimellitate] was tested. Which LD50 (Rattus norvegicus [2]; Sprague-Dawley) did it give?
**A.** > 10000 mg/kg

**Q.** COc1ccc(C)cc1N [2-Methoxy-5-methylaniline] was tested. Which NOEL (Rattus norvegicus [1]; short-term, duration: 28 days, gavage, M/F, Clinical Observation: Salivation + Body Weight Changes: Weight gain decrease + Food Consumption: decrease + Urinalysis: Occult blood RBC …) did it give?
**A.** 2 mg/kg-day

**Q.** C=CC(C)(C)O [2-Methyl-3-buten-2-ol] was tested. Which NOAEL (Rattus norvegicus [1]; short-term, duration: 28 days, gavage, M/F, Wistar, Deaths + 'excluded + Clinical Observation: Sedation Ataxia Uncoordinated gait Salivation + Blood Chemistry: ALT increase, AST increase + …) did it give?
**A.** 50 mg/kg-day

**Q.** CC1CC(C)(C)CC(c2ccc(O)cc2)(c2ccc(O)cc2)C1 (stereo unspecified) [bisphenol TMC] was tested. Which NOEL (Rattus norvegicus [1]; short-term, duration: 28 days, gavage, M/F, Body Weight Changes: Weight gain decrease + Food Consumption: decrease + Water Consumption: increase + Urinalysis: Protein increase + …) did it give?
**A.** < 100 mg/kg-day

**Q.** C(CCCOCC1CO1)CCOCC1CO1 (stereo unspecified) [1,6-Hexanediol diglycidyl ether] was tested. Which NOAEL (Rattus norvegicus [1]; [3]) did it give?
**A.** 30 mg/kg-day

**Q.** What about the NOEL (Rattus norvegicus [1]; [3]) of the same molecule?
**A.** 30 mg/kg-day

**Q.** With CCCCn1c(O)c(C#N)c(C)c(N=Nc2ccc([N+](=O)[O-])cc2Cl)c1=O as the molecule, how does the NOEL (Rattus norvegicus [1]; short-term, duration: 28 days, gavage, M/F, Blood Chemistry: GOT increase, T-bil increase + Organ Weight: Liver increase) read?
**A.** 250 mg/kg-day

**Q.** O=C1OC(O)C(C(Cl)Cl)=C1Cl (stereo unspecified) [3-Chloro-4-(dichloromethyl)-5-hydroxy-2(5H)-furanone] was tested. Which NOAEL (Rattus norvegicus [1]; chronic, duration: 18 weeks, gavage, M/F, Wistar, Deaths + Clinical Observation: Emaciation Wheezy breathing Tangled fur Hypersalivation Dirty mouth surrounding Colored nostril discharges + …) did it give?
**A.** < 30 mg/kg-day

**Q.** With CC/C=C\CCOC(=O)c1ccccc1O [(3Z)-Hex-3-en-1-yl salicylate] as the molecule, how does the NOAEL (Rattus norvegicus [1]; subchronic, duration: 42 days, gavage, M, Sprague-Dawley, Water Consumption: increase + Urinalysis: Volume increase, Osmo decrease + Hematology: RBC decrease, MCV increase, MCHC increase, RET …) read?
**A.** 120 mg/kg-day

**Q.** With CC(C)CCCCC(=O)O [Isooctanoic acid] as the molecule, how does the NOAEL (Rattus norvegicus [2]; developmental, gavage, Sprague-Dawley) read?
**A.** 800 mg/kg-day

**Q.** What about the NOAEL (Rattus norvegicus [2]; reproduction developmental, diet, F, Sprague-Dawley) of the same molecule?
**A.** 7500 ppm

**Q.** What about the NOAEL (Rattus norvegicus [2]; reproduction developmental, diet, Sprague-Dawley, generation: F1) of the same molecule?
**A.** 7500 ppm

**Q.** What about the NOAEL (Rattus norvegicus [2]; reproduction developmental, gavage, F, Sprague-Dawley) of the same molecule?
**A.** 400 mg/kg-day

**Q.** CC1COCc2cc3c(cc21)C(C)(C)C(C)C3(C)C (stereo unspecified) was tested. Which LOAEL (Rattus norvegicus [2]; [4]) did it give?
**A.** 150 mg/kg-day

**Q.** And the NOAEL (Rattus norvegicus [2]; [4])?
**A.** 50 mg/kg-day

**Q.** What about the NOAEL (Rattus norvegicus [2]; reproduction developmental, duration: 10 days, gavage, Sprague-Dawley, generation: F1) of the same molecule?
**A.** 150 mg/kg-day

**Q.** And the NOAEL (Rattus norvegicus [2]; reproduction developmental, gavage)?
**A.** 20 mg/kg-day

**Q.** What about the LOAEL (Rattus norvegicus [2]; [5]) of the same molecule?
**A.** 300 mg/kg-day

**Q.** What about the NOAEL (Rattus norvegicus [2]; [5]) of the same molecule?
**A.** 150 mg/kg-day

**Q.** For CC(C)CCCCCOC(=O)CCc1cc(C(C)(C)C)c(O)c(C(C)(C)C)c1, which NOEL (Rattus norvegicus [1]; short-term, duration: 28 days, gavage, M/F, Hematology: APTT increase + Organ Weight: Liver increase + Histopathology: Liver - Hypertrophy, centrilobular, hepatocyte Thyroid - …) is on record?
**A.** < 5 mg/kg-day

**Q.** Which results are given for COCO [Methoxymethanol]?
**A.** LD50 (Rattus norvegicus [2]; gavage, Crj:CD): 1270 mg/kg; NOAEL (Rattus norvegicus [2]; developmental, gavage, Crj:CD): 300 mg/kg-day; LOAEL (Rattus norvegicus [2]; [6]): 300 mg/kg-day; NOAEL (Rattus norvegicus [2]; [6]): 60 mg/kg-day; LOAEL (Rattus norvegicus [2]; [7]): 60 mg/kg-day; NOAEL (Rattus norvegicus [2]; [7]): 12 mg/kg-day; NOAEL (Rattus norvegicus [2]; reproduction developmental, gavage, Crj:CD): 300 mg/kg-day; NOAEL (Rattus norvegicus [2]; reproduction developmental, gavage, F, Crj:CD): 60 mg/kg-day; NOAEL (Rattus norvegicus [2]; reproduction developmental, gavage, M, Crj:CD): 12 mg/kg-day

**Q.** How did the NOEL (Rattus norvegicus [1]; subchronic, gavage, M, Sprague-Dawley, Clinical Observation: Transient salivation + Histopathology: Mesentric lymph node-Granuloma R) turn out when Nc1cc(C(=O)O)ccc1Cl [3-Amino-4-chlorobenzoic acid] was run?
**A.** 200 mg/kg-day

**Q.** CCNc1cccc2ccccc12 [1-Naphthalenamine, N-ethyl-] was tested. Which NOEL (Rattus norvegicus [1]; short-term, duration: 28 days, gavage, M/F, Sprague-Dawley, Deaths + Clinical Observation: Brown urine Soft feces + Functional Observational Battery: Motor activity decrease + Body Weight Changes: …) did it give?
**A.** 12 mg/kg-day

**Q.** Which NOAEL (Rattus norvegicus [1]; [8]) does the source give for Cc1cccc(Cl)c1Cl [Benzene, 1,2-dichloro-3-methyl-] here?
**A.** 200 mg/kg-day

**Q.** What about the NOEL (Rattus norvegicus [1]; [8]) of the same molecule?
**A.** < 50 mg/kg-day

**Q.** Cc1cc(O)c2c(c1)C(=O)c1cc(O)cc(O)c1C2=O [Emodin] was tested. Which NOEL (Rattus norvegicus [1]; chronic, duration: 14 weeks, diet, M/F, Fischer 344, Clinical Observation: Body color change Diarrhea + Body Weight Changes: decrease. >2500 + Food Consumption: decrease + Hematology: Hct …) did it give?
**A.** < 24.4 mg/kg-day

**Q.** Which results are given for CCCCCCCC[Si](OCC)(OCC)OCC [Triethoxyoctylsilane]?
**A.** NOAEL (Rattus norvegicus [1]; short-term, duration: 28 days, diet, Fischer 344): 10000 ppm; NOAEL (Rattus norvegicus [1]; short-term, duration: 29 days, gavage, M/F, Sprague-Dawley, Clinical Observation: Soiling of the head (nose, chin, muzzle) + Body Weight Changes: Mean body weight decrease, Weight gain decrease + Food…): 300 mg/kg-day

**Q.** For CCCCCCCCCCCCCCCCCC[N+](C)(C)CCCCCCCCCCCCCCCCCC.[Cl-] [Dimethyldioctadecylammonium chloride], which NOAEL (Rattus norvegicus [1]; short-term, duration: 28 days, gavage, M/F, Wistar, Body Weight Changes: Weight gain decrease + Hematology: WBC increase + Histopathology: Adrenal: Necrosis, cortex Adrenal: Granulocytes …) is on record?
**A.** 100 mg/kg-day

**Q.** What does the source list for C1CCC2CCCCC2C1 (stereo unspecified) [Decalin]?
**A.** LOEL (Rattus norvegicus [1]; [9]): 200 mg/kg-day; NOEL (Rattus norvegicus [1]; [9]): 40 mg/kg-day; LOEL (Rattus norvegicus [1]; [10]): 40 mg/kg-day; NOEL (Rattus norvegicus [1]; [10]): < 40 mg/kg-day
